Values after ≈ are worked out from the molar mass of the structure shown. Where two headings read alike, the source gives them in different places.
Assays:
[1] = tested on: gram-positive bacteria, especially, Staphylococcus aureus and Bacillus subtilis; assay: In-vitro antibacterial activity, comparison over gram-positive bacteria; format: cell-based; conditions: from Table 1
Protocol: (§1) In-vitro antibacterial activity was determined by the two-fold dilution method as described below. 2 μl of the test microorganism which has the 10^7 CFU per ml was inoculated on the Muller-Hinton agar which has been dispersed by the test compound, and was incubated at 37° C. for 20 hours.

[2] = tested on: Pseudomonas aeruginosa ATCC 25619; assay: In-vitro antibacterial activity (MIC), two-fold dilution method; format: cell-based; conditions: read-out: minimal inhibitory concentration (MIC)
Protocol: as §1

[3] = tested on: Bacillus subtilis ATCC 6633; assay: as above; format: cell-based; conditions: read-out: minimal inhibitory concentration (MIC)
Protocol: as §1

[4] = tested on: Salmonella typhimurium ATCC 14028; assay: as above; format: cell-based; conditions: Salmonella enterica, read-out: minimal inhibitory concentration (MIC)
Protocol: as §1

[5] = tested on: Staphylococcus aureus ATCC 10537; assay: as above; format: cell-based; conditions: read-out: minimal inhibitory concentration (MIC)
Protocol: as §1

[6] = tested on: Escherichia coli ATCC 10536; assay: as above; format: cell-based; conditions: read-out: minimal inhibitory concentration (MIC)
Protocol: as §1

[7] = tested on: Pseudomonas aeruginosa ATCC 27853; assay: as above; format: cell-based; conditions: read-out: minimal inhibitory concentration (MIC)
Protocol: as §1

[8] = tested on: Pseudomonas aeruginosa ATCC 10145; assay: as above; format: cell-based; conditions: read-out: minimal inhibitory concentration (MIC)
Protocol: as §1

[9] = tested on: Enterobacter aerogenes ATCC 29751; assay: as above; format: cell-based; conditions: Klebsiella aerogenes, read-out: minimal inhibitory concentration (MIC)
Protocol: as §1

[10] = tested on: Serratia marcescens ATCC 27117; assay: as above; format: cell-based; conditions: read-out: minimal inhibitory concentration (MIC)
Protocol: as §1

[11] = tested on: Proteus mirabilis ATCC 25933; assay: as above; format: cell-based; conditions: read-out: minimal inhibitory concentration (MIC)
Protocol: as §1

[12] = tested on: Klebsiella pneumoniae ATCC 10031; assay: as above; format: cell-based; conditions: read-out: minimal inhibitory concentration (MIC)
Protocol: as §1

[13] = tested on: gram-negative bacteria including Pseudomonas aeruginosa; assay: In-vitro antibacterial activity, comparison over gram-negative bacteria; format: cell-based; conditions: from Table 1
Protocol: as §1

[14] = Pharmacokinetics of compound (Ib) in rat, intravenous, plasma by HPLC; format: in vivo, rat (Fischer); conditions: for half-life: rat, 14.29 mg/kg
Protocol: The pharmacokinetics of the invented compound (Ib) was studied in rat (Fischer, 6~10 weeks). The compound (Ib) was dissolved in phosphate bupper solution(0.05M; pH=9) and intraveneouly administered in a dose of 14.29 mg/kg to four rats, and blood samples from the rats were taken at 1, 5, 10 and 30 mins and 1, 2, 3, 5 and 7 hours after administration of the compound (Ib), respectively.
The concentrations in plasma were measured by HPLC analysis of blood samples, and the results of average concentrations in plasma were listed in Table 2.

[15] = rat (SD), i.v. 20 mg/kg, II Compartment; cited from earlier work
[16] = dog (Beagle), i.v. 20 mg/kg, II Compartment; cited from earlier work
[17] = monkey (Rhesus), i.v. 20 mg/kg, II Compartment; cited from earlier work
[18] = ATCC25619, Pseudomonas aeruginosa ATCC 25619, Muller-Hinton agar, 37° C., 20 hours
[19] = ATCC6633, Bacillus subtilis ATCC 6633, Muller-Hinton agar, 37° C., 20 hours
[20] = Salmonella typhimurium ATCC 14028, Muller-Hinton agar, 37° C., 20 hours
[21] = Staphylococcus aureus, ATCC10537, 20 h
[22] = ATCC10536, Escherichia coli ATCC 10536, Muller-Hinton agar, 37° C., 20 hours
[23] = ATCC27853, Pseudomonas aeruginosa ATCC 27853, Muller-Hinton agar, 37° C., 20 hours
[24] = ATCC10145, Pseudomonas aeruginosa ATCC 10145, Muller-Hinton agar, 37° C., 20 hours
[25] = ATCC29751, Enterobacter aerogenes ATCC 29751, Muller-Hinton agar, 37° C., 20 hours
[26] = ATCC27117, Serratia marcescens ATCC 27117, Muller-Hinton agar, 37° C., 20 hours
[27] = ATCC25933, Proteus mirabilis ATCC 25933, Muller-Hinton agar, 37° C., 20 hours
[28] = ATCC10031, Klebsiella pneumoniae ATCC 10031, Muller-Hinton agar, 37° C., 20 hours
[29] = Bacillus subtilis, ATCC6633, 20 h
[30] = Pseudomonas aeruginosa, ATCC10145, 20 h
[31] = ATCC10537, Staphylococcus aureus ATCC 10537, Muller-Hinton agar, 37° C., 20 hours

SMILES | activity against gram-positive bacteria as compared with ceftazidime and moxalactam [1] | MIC [2, 18] [µg/mL] | MIC [4, 20] [µg/mL] | MIC [5, 21] [µg/mL] | MIC [6, 22] [µg/mL] | MIC [7, 23] [µg/mL] | MIC [8, 24] [µg/mL] | MIC [9, 25] [µg/mL] | MIC [10, 26] [µg/mL] | MIC [11, 27] [µg/mL] | MIC [12, 28] [µg/mL] | activity against gram-negative bacteria as compared with ceftazidime and moxalactam [13] | MIC [3, 29] [µg/mL] | further results
Nc1nc(/C(=N/OCc2ccco2)C(=O)NC2C(=O)N3C(C(=O)[O-])=C(C[n+]4ccccc4)CSC23)cs1 (centres unmarked) [Compound (Ib), 7-[(Z)-2-(2-Aminothiazol-4-yl)-2-(2-furfuryl-oxyimino)acetamido]-3-(1-pyridiniummethyl)-3-cephem-4-carboxylate] | superior antimicrobiral activities | 1 (≈ 1.85 µM) | 2 (≈ 3.7 µM) | 0.25 (≈ 0.462 µM) | 0.5 (≈ 0.925 µM) | 8 (≈ 14.8 µM) | 8 (≈ 14.8 µM) | 4 (≈ 7.4 µM) | 0.5 (≈ 0.925 µM) | 0.5 (≈ 0.925 µM) | 0.0625 (≈ 0.116 µM) | almost equally active |  | MIC [3, 19]: 0.25 µg/mL (≈ 0.462 µM); AUC ratio to cefotaxime ([14]; Ib in rat vs cefotaxime in rat): 6.5 times; T1/2 (β) ratio to cefotaxime in rat ([14]; Ib in rat vs cefotaxime in rat): 6.4 times; T1/2 (β) ratio to ceftazidime or ceftriaxone in dog ([14]; Ib in rat vs ceftazidime or ceftriaxone in dog): 1.9 times; AUC ([14]; plasma, iv, rat (Fischer), i.v. 14.29 mg/kg, II Compartment): 62400 ng·h/mL; concentration at 1 min ([14]; plasma, iv, rat (Fischer), i.v. 14.29 mg/kg, average of four rats, 1 min): 112000 ng/mL; concentration at 5 min ([14]; plasma, iv, rat (Fischer), i.v. 14.29 mg/kg, average of four rats, 5 min): 60600 ng/mL; concentration at 10 min ([14]; plasma, iv, rat (Fischer), i.v. 14.29 mg/kg, average of four rats, 10 min): 43000 ng/mL; concentration at 0.5 h ([14]; plasma, iv, rat (Fischer), i.v. 14.29 mg/kg, average of four rats, 30 min): 20700 ng/mL; concentration at 1 h ([14]; plasma, iv, rat (Fischer), i.v. 14.29 mg/kg, average of four rats, 1 hr): 12600 ng/mL; concentration at 2 h ([14]; plasma, iv, rat (Fischer), i.v. 14.29 mg/kg, average of four rats, 2 hr): 6100 ng/mL; concentration at 3 h ([14]; plasma, iv, rat (Fischer), i.v. 14.29 mg/kg, average of four rats, 3 hr): 4300 ng/mL; concentration at 5 h ([14]; plasma, iv, rat (Fischer), i.v. 14.29 mg/kg, average of four rats, 5 hr): 1600 ng/mL; concentration at 7 h ([14]; plasma, iv, rat (Fischer), i.v. 14.29 mg/kg, average of four rats, 7 hr): 900 ng/mL; half-life ([14]; plasma, iv, rat (Fischer), i.v. 14.29 mg/kg, II Compartment, read-out: T1/2 (α)): 6.21 min; half-life ([14]; plasma, iv, rat (Fischer), i.v. 14.29 mg/kg, II Compartment, read-out: T1/2 (β)): 95 min
CO/N=C(\C(=O)N[C@@H]1C(=O)N2C(C(=O)O)=C(COC(C)=O)CS[C@H]12)c1csc(N)n1 [Cefotaxime] |  |  |  |  |  |  |  |  |  |  |  |  |  | AUC [15]: 13500 ng·h/mL; T1/2 (α) [15]: 4.55 min; T1/2 (β) [15]: 14.8 min
CC(C)(O/N=C(\C(=O)N[C@@H]1C(=O)N2C(C(=O)[O-])=C(C[n+]3ccccc3)CS[C@H]12)c1csc(N)n1)C(=O)O [Ceftazidime, reference compound] |  |  |  | 4 (≈ 7.32 µM) |  |  |  |  |  |  |  |  | 16 (≈ 29.3 µM) | MIC ([2]; Pseudomonas aeruginosa, ATCC25619, 20 h): 1 µg/mL (≈ 1.83 µM); MIC ([4]; 20 h): 0.25 µg/mL (≈ 0.457 µM); MIC ([6]; Escherichia coli, ATCC10536, 20 h): 0.125 µg/mL (≈ 0.229 µM); MIC ([7]; Pseudomonas aeruginosa, ATCC27853, 20 h): 2 µg/mL (≈ 3.66 µM); MIC [8, 30]: 2 µg/mL (≈ 3.66 µM); MIC ([9]; ATCC29751, 20 h): 4 µg/mL (≈ 7.32 µM); MIC ([10]; Serratia marcescens, ATCC27117, 20 h): 0.0625 µg/mL (≈ 0.114 µM); MIC ([11]; Proteus mirabilis, ATCC25933, 20 h): 0.0625 µg/mL (≈ 0.114 µM); MIC ([12]; Klebsiella pneumoniae, ATCC10031, 20 h): 0.125 µg/mL (≈ 0.229 µM); AUC [16]: 93000 ng·h/mL
Cn1nnnc1SCC1=C(C(=O)O)N2C(=O)C(NC(=O)/C(=N\OCc3ccco3)c3csc(N)n3)C2SC1 (centres unmarked) [(Ic), Sodium 7-[(Z)-2-(2-aminothiazol-4-yl)-2-(2-furfuryloxyimino)-acetamido]-3-[(1-methyl-1H-tetrazol-5-yl)thiomethyl]-3-cephem-4-carboxylate] | superior antimicrobiral activities | 1 | 2 |  | 0.5 | 16 | 16 | 8 | 1 | 0.25 | < 0.0315 | almost equally active |  | MIC [3, 19]: 0.5 µg/mL; MIC [5, 31]: 1 µg/mL
CO[C@@]1(NC(=O)C(C(=O)O)c2ccc(O)cc2)C(=O)N2C(C(=O)O)=C(CSc3nnnn3C)CO[C@@H]21 (some centres unmarked) [Moxalactam, reference compound] |  | 8 (≈ 15.4 µM) | 0.25 (≈ 0.48 µM) |  | 0.125 (≈ 0.24 µM) | 16 (≈ 30.7 µM) |  | 1 (≈ 1.92 µM) | 0.125 (≈ 0.24 µM) | 0.25 (≈ 0.48 µM) | 0.25 (≈ 0.48 µM) |  | 8 (≈ 15.4 µM) | MIC [5, 31]: 4 µg/mL (≈ 7.69 µM); MIC [8, 30]: 32 µg/mL (≈ 61.5 µM)
CO/N=C(\C(=O)N[C@@H]1C(=O)N2C(C(=O)O)=C(CSc3nc(=O)c(=O)[nH]n3C)CS[C@H]12)c1csc(N)n1 [Ceftriaxone] |  |  |  |  |  |  |  |  |  |  |  |  |  | AUC [16]: 84300 ng·h/mL; T1/2 (α) [16]: 6.80 min; T1/2 (β) [16]: 50.7 min; AUC [17]: 838000 ng·h/mL; T1/2 (α) [17]: 23.16 min; T1/2 (β) [17]: 204 min
CC(=O)OCC1=C(C(=O)O)N2C(=O)C(NC(=O)/C(=N\OCc3ccco3)c3csc(N)n3)C2SC1 (centres unmarked) [(Ia), 7-[(Z)-2-(2-Aminothiazol-4-yl)-2-(2-furfuryl-oxyimino)acetamido]-3-acetoxymethyl-3-cephem-4-carboxylic acid] | superior antimicrobiral activities | 1 (≈ 1.92 µM) | 2 (≈ 3.83 µM) | 1 (≈ 1.92 µM) | 0.5 (≈ 0.959 µM) | 16 (≈ 30.7 µM) | 16 (≈ 30.7 µM) | 16 (≈ 30.7 µM) | 1 (≈ 1.92 µM) | 0.125 (≈ 0.24 µM) | < 0.0312 | almost equally active | 0.5 (≈ 0.959 µM) | 
